Active and inactive are the calls of the source. The calls are words filed in the database; no cut-off is given here.
Key:
[1] = Toxicity in athymic nude BALB/c mouse xenografted with human HCT-116 cells assessed as reduction in body weight at 5 to 15 mg/kg, ip administered every other day and measured every other day for 16 days; type: organism-based; conditions: in vivo, 384 h, dose 5-15 mg/kg, time 16 day
[2] = system: Mus musculus; assay: In vivo inhibition of NFkappaB activation in athymic BALB/c mouse xenografted with human HT-29 cells assessed as reduction in E-selectin gene expression in tumor at 5 to 15 mg/kg, ip administered every other day and measured after 14 days by qRT-PCR analysis; type: functional, organism-based; conditions: dose 5-15 mg/kg, time 14.0 day
[3] = system: HCT-15; assay: Cytotoxicity against human HCT-15 cells assessed as decrease in cell viability incubated for 48 hrs by SRB assay; type: functional, cell-based; conditions: HCT-15, 48 h
[4] = system: HCT-116; assay: Induction of cell cycle arrest in human HCT-116 cells assessed as accumulation of cells at G2/M phase at 1 uM by RNase/PI staining based flow cytometry analysis (reference value: 23.15 %); type: functional
[5] = system: HCT-116; assay: Induction of cell cycle arrest in human HCT-116 cells assessed as decrease in cyclin B protein expression upto 10 uM incubated for 24 hrs by Western blot analysis; type: functional, cell-based
[6] = system: HCT-116; assay: Induction of cell cycle arrest in human HCT-116 cells assessed as decrease in Cdc2 protein expression upto 10 uM incubated for 24 hrs by Western blot analysis; type: functional, cell-based
[7] = system: HCT-116; assay: Induction of cell cycle arrest in human HCT-116 cells assessed as decrease in CDK2 protein expression upto 10 uM incubated for 24 hrs by Western blot analysis; type: functional, cell-based
[8] = system: HT-29; assay: Induction of cell cycle arrest in human HT-29 cells assessed as decrease in CDK4 protein expression upto 10 uM incubated for 24 hrs by Western blot analysis; type: functional, cell-based
[9] = system: HCT-116; assay: Induction of apoptosis in human HCT-116 cells assessed as early apoptotic cells at 1 uM incubated for 24 hrs by Annexin V-FITC/PI staining based flow cytometric analysis (reference value: 7.22 %); type: functional
[10] = system: HCT-116; assay: Induction of apoptosis in human HCT-116 cells assessed as late apoptotic cells at 5 uM incubated for 24 hrs by Annexin V-FITC/PI staining based flow cytometric analysis (reference value: 2.9 %); type: functional
[11] = system: HCT-116; assay: Induction of apoptosis in human HCT-116 cells assessed as necrotic cells at 0.5 uM incubated for 24 hrs by Annexin V-FITC/PI staining based flow cytometric analysis (reference value: 1.1 %); type: functional
[12] = system: HT-29; assay: Induction of apoptosis in human HT-29 cells assessed as viable cells at 10 uM incubated for 24 hrs by Annexin V-FITC/PI staining based flow cytometric analysis (reference value: 93 %); type: functional; conditions: read-out: Activity
[13] = system: HT-29; assay: Induction of apoptosis in human HT-29 cells assessed as viable cells at 0.25 uM incubated for 24 hrs by Annexin V-FITC/PI staining based flow cytometric analysis (reference value: 93 %); type: functional; conditions: read-out: Activity
[14] = system: HT-29; assay: Induction of apoptosis in human HT-29 cells assessed as early apoptotic cells at 0.25 uM incubated for 24 hrs by Annexin V-FITC/PI staining based flow cytometric analysis (reference value: 5.29 %); type: functional
[15] = system: HT-29; assay: Induction of apoptosis in human HT-29 cells assessed as late apoptotic cells at 10 uM incubated for 24 hrs by Annexin V-FITC/PI staining based flow cytometric analysis (reference value: 1.56 %); type: functional
[16] = system: HT-29; assay: Induction of apoptosis in human HT-29 cells assessed as late apoptotic cells at 0.25 uM incubated for 24 hrs by Annexin V-FITC/PI staining based flow cytometric analysis (reference value: 1.56 %); type: functional
[17] = system: Cell membrane; assay: Disruption of mitochondrial membrane potential in human HCT-116 cells at upto 10 uM measured after 24 hrs by JC-1 staining based fluorescence microscopy; type: subcellular
[18] = system: HT-29; assay: Induction of apoptosis in human HT-29 cells assessed as inhibition of caspase 9 protein expression measured for 24 hrs by Western blot analysis; type: functional, cell-based; conditions: dose 0-10 µM
[19] = system: HCT-116; assay: Induction of apoptosis in human HCT-116 cells assessed as viable cells at 5 uM preincubated with Z-VAD-FMK for 1 hr followed by compound addition and measured after 24 hrs by Annexin V-FITC/PI staining based flow cytometric analysis (reference value: 85.5 %); type: functional; conditions: read-out: Activity
[20] = system: HCT-116; assay: Induction of apoptosis in human HCT-116 cells assessed as late apoptotic cells at 5 uM preincubated with Z-VAD-FMK for 1 hr followed by compound addition and measured after 24 hrs by Annexin V-FITC/PI staining based flow cytometric analysis (reference value: 9.37 %); type: functional
[21] = system: HCT-116; assay: Induction of apoptosis in human HCT-116 cells assessed as necrotic cells at 5 uM preincubated with Z-VAD-FMK for 1 hr followed by compound addition and measured after 24 hrs by Annexin V-FITC/PI staining based flow cytometric analysis (reference value: 0.34 %); type: functional
[22] = molecular target: Nuclear factor NF-kappa-B complex (Homo sapiens) (UniProt Q00653+P19838+Q04206); assay: Inhibition of TNF-alpha induced NFkappaB activation in human HT-29 cells assessed as downregulation of E-selectin gene expression pretreated for 24 hrs followed by TNFalpha stimulation and measured after 2 hrs by quantitative RT-PCR analysis; type: cell-based; conditions: dose 1-10 µM, time 26.0 hrs
[23] = system: Mus musculus; assay: In vivo inhibition of NFkappaB activation in LPS-induced BALB/c mouse model of endotoxin shock assessed as reduction in TNF-alpha level in serum at 5 mg/kg, ip pretreated for 4 hrs followed by LPS stimulation for 1 hr by ELISA; type: functional, organism-based; conditions: time 5.0 hrs
[24] = system: Mus musculus; assay: In vivo inhibition of NFkappaB activation in athymic BALB/c mouse xenografted with human HT-29 cells assessed as reduction in MCP-1 gene expression in tumor at 5 to 15 mg/kg, ip administered every other day and measured after 14 days by qRT-PCR analysis; type: functional, organism-based; conditions: dose 5-15 mg/kg, time 14.0 day
[25] = Toxicity in athymic nude BALB/c mouse xenografted with human HT-29 cells assessed as pathological changes in lungs at 5 to 15 mg/kg, ip administered every other day and measured after 14 days by hematoxylin and eosin staining-based microscopic analysis; type: organism-based; conditions: in vivo, 336 h, dose 5-15 mg/kg, time 14 day
[26] = system: Mus musculus; assay: (§1) Anti-inflammatory activity in AOM/DSS-induced BALB/c mouse model inflammatory bowel disease assessed as reduction in tumor load at 5 to 10 mg/kg, ip pretreated with AOM for 7 days further replaced with DSS for 7 days and repeated for 2 times followed by every 2 days compound treatment for […] starting from day 50 and measured once a week; type: functional, organism-based; conditions: dose 5-10 mg/kg, time 21.0 day
[27] = system: Mus musculus; assay: as §1, with “colon thickness” for “tumor load”; type: functional, organism-based; conditions: dose 5-10 mg/kg, time 21.0 day
[28] = system: HCT-116; assay: Induction of autophagic flux in human HCT-116 cells assessed as increase in LC3I to LC3II conversion preincubated with 3-methyladenine for 1 hr followed by compound addition and measured after 24 hrs by Western blot analysis; type: functional, cell-based
[29] = system: HT-29; assay: Induction of autophagic flux in human HT-29 cells assessed as increase in LC3I to LC3II conversion preincubated with 3-methyladenine for 1 hr followed by compound addition and measured after 24 hrs by Western blot analysis; type: functional, cell-based
[30] = system: Mus musculus; assay: as §1, with “body weight” for “tumor load”, “50 by H” for “50”, “E staining based analysis” for “measured once a week”; type: functional, organism-based; conditions: dose 5-10 mg/kg, time 21.0 day

Sequence of Nuclear factor NF-kappa-B complex (Homo sapiens) (P19838 whole entry, looked up): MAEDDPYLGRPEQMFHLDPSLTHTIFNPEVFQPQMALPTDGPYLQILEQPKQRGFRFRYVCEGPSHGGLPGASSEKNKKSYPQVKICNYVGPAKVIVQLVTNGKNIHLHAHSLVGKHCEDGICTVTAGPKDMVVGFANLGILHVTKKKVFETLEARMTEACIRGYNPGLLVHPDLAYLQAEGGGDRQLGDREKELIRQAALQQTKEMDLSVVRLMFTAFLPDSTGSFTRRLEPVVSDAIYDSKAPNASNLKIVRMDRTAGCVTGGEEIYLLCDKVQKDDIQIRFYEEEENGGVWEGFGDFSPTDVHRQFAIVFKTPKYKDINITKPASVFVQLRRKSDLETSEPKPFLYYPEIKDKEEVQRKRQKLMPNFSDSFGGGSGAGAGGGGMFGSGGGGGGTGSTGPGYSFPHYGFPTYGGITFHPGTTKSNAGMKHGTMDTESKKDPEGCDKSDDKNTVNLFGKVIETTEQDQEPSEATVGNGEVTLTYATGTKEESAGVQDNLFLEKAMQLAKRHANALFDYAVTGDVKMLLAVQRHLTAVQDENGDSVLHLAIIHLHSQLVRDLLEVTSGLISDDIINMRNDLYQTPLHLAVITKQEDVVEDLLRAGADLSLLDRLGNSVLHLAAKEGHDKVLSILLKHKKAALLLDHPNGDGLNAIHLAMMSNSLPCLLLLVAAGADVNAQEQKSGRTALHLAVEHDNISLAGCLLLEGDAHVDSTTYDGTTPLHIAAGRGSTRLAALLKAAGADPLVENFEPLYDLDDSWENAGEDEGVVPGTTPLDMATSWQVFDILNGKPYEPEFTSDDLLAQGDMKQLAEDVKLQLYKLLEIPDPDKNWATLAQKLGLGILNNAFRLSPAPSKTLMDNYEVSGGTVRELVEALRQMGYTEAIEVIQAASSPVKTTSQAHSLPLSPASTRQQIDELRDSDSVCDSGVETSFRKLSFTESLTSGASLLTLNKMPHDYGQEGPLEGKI
Sequence of Nuclear factor NF-kappa-B complex (Homo sapiens) (Q00653 whole entry, looked up): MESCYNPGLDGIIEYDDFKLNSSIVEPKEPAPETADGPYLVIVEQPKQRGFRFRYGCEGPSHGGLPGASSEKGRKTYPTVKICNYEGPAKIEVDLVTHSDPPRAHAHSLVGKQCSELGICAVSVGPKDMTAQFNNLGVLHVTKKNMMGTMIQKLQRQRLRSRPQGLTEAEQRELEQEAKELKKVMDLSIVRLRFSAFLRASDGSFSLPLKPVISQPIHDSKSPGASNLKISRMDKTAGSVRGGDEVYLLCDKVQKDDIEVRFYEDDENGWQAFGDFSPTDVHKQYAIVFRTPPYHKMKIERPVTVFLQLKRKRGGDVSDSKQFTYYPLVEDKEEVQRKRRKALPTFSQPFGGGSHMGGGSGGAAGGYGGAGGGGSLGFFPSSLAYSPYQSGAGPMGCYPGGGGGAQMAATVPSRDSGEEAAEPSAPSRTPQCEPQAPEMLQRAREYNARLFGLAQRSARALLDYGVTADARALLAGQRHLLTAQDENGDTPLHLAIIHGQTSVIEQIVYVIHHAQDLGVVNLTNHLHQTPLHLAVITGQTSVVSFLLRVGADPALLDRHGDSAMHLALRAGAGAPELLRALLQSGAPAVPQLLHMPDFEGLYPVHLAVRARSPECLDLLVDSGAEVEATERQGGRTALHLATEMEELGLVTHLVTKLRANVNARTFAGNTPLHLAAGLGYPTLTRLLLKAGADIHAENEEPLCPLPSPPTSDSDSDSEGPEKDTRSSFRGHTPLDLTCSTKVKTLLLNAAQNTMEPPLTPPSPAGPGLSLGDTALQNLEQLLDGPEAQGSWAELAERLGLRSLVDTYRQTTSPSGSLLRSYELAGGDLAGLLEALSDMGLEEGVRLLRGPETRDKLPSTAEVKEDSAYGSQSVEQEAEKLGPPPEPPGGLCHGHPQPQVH
Sequence of Nuclear factor NF-kappa-B complex (Homo sapiens) (Q04206 whole entry, looked up): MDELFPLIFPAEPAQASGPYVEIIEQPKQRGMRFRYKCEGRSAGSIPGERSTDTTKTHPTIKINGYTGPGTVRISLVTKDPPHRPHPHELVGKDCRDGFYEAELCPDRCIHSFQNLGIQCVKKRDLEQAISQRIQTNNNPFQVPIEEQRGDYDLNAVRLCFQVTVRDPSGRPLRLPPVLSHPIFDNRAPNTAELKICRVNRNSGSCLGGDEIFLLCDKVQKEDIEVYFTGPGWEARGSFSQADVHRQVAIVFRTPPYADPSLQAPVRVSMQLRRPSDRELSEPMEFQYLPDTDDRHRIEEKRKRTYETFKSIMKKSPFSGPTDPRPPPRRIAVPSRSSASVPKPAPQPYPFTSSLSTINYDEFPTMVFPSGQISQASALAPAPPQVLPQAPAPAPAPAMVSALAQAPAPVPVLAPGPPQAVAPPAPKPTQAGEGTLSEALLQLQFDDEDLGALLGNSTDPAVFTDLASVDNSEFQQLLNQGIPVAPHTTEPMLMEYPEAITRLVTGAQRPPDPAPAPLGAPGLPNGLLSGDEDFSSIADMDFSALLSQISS

Compound: C[C@@H]1CC[C@H]2[C@H](C(=O)c3c(O)c([C@@]4(O)CC[C@@H](O)[C@H]5O[C@H]54)cn(O)c3=O)[C@H](C)C=C[C@@H]2C1
- Activity [1]: Non-Toxic
- inhibition [2]: Active
- IC50 [3]: 570 nM
- Activity [4]: 20.12%
- Activity [5]: Active
- Activity [6]: Active
- Activity [7]: Active
- Activity [8]: Active
- Activity [9]: 18.6%
- Activity [10]: 64.4%
- Activity [11]: 2.54%
- viability at 10 µM [12]: 36.8%
- viability at 0.25 µM [13]: 85.9%
- Activity [14]: 12.6%
- Activity [15]: 16.8%
- Activity [16]: 1.4%
- Activity [17]: Active
- Activity [18]: Dose-Dependent Effect
- viability at 5 µM [19]: 29.5%
- Activity [20]: 53.3%
- Activity [21]: 0.39%
- inhibition [22]: Dose-Dependent Effect
- inhibition [23]: Active
- inhibition [24]: Active
- Activity [25]: Non-Toxic
- Activity [26]: Active
- Activity [27]: Active
- Activity [28]: Active
- Activity [29]: Active
- Activity [30]: Active
